{
  "source": "patent US9241952B2",
  "about": "“Method of treating type II diabetes, hyperglycemia or hypoglycemia by administering a synergistic combination of a sulphonylurea and inulin” (OZSTAR THERAPEUTICS PTY LTD, priority 2010, dated 2016)",
  "format_in_all_cases": "in vivo, human",
  "key": {"[1]": {"test": "Fasting blood glucose (FBG), Accu-Chek, T2DM patient on Glibenclamide with inulin (Examples 1 and 3)", "method": "(§1) Other similar devices can also be used.\nThe efficacy of inulin on Glibenclamide therapy was investigated. Several years prior to inulin combination therapy, patient's FBG fluctuated drastically and was uncontrolled around 10 mmol/L. Their cholesterol and triglyceride were also very high (Table 2). FIG. 1 depicts the monthly FBG average at indicated time points. Conditions of treatments are described below: • January 2007: Patient's endocrinologist increased the Glibenclamide dose from 2×5 mg to 3×5 mg per day. […] For the first time they were diagnosed with Atrial fibrillation and prescribed with Warfarin. […] Low FBG assisted in excellent recovery. • March 2009: Inulin supply became unavailable.\nThe patient, as described above in Example 1, was switched over to inulin (Orafti), and combination therapy with Glibenclaminde (5 mg, three times daily) continued following a similar protocol as described above except that the patient received 15 gr/day of inulin (Orafti)."}, "[2]": {"test": "FBG, HA1c and lipid profiles by independent pathology laboratory, Example 1 patient (Table 2)", "conditions": "Nov. 5, 2006; prior to inulin", "description": "as §1"}, "[3]": {"test": "FBG, T2DM patient on Gliclazide with inulin (Example 2)", "method": "as §1\nAnother patient, who was under Gliclazide therapy (30 mg, once daily) for nearly a decade with uncontrolled blood glucose levels above 9 mmol/L, also began the combination therapy with inulin (JLS). Various blood parameter measurements were as described in Example 1."}},
  "data": [
    {"smiles": "COc1ccc(Cl)cc1C(=O)NCCc1ccc(S(=O)(=O)NC(=O)NC2CCCCC2)cc1", "note": "[Glibenclamide]", "values": [
      {"measurement": "average FBG", "setting": "[1]; February 2007, Glibenclamide 3×5 mg per day", "result": 6, "unit": "mmol/L"},
      {"measurement": "average FBG", "setting": "[1]; January 2007, Glibenclamide 2×5 mg per day", "result": 7.8, "unit": "mmol/L"},
      {"measurement": "FBG", "setting": "[1]; by October 2009, inulin unavailable from March 2009", "result": "~7.5", "unit": "mmol/L"},
      {"measurement": "FBG", "setting": "[1]; several years prior to inulin combination therapy, uncontrolled", "result": "around 10 mmol/L"},
      {"measurement": "Cholesterol", "setting": "[2]", "result": 6.2, "unit": "mmol/L"},
      {"measurement": "Fasting Glucose", "setting": "[2]", "result": 10, "unit": "mmol/L"},
      {"measurement": "Triglyceride", "setting": "[2]", "result": 4, "unit": "mmol/L"}
    ]},
    {"smiles": "Cc1ccc(S(=O)(=O)NC(=O)NN2CC3CCCC3C2)cc1", "note": "(stereo not drawn) [Gliclazide]", "values": [
      {"measurement": "blood glucose levels", "setting": "[3]; Gliclazide 30 mg once daily for nearly a decade, uncontrolled", "result": "above 9 mmol/L"},
      {"measurement": "FBG level", "setting": "[3]; Gliclazide 30 mg once daily, before inulin, ± SEM", "result": "9.4 ± 1.82", "unit": "mmol/L"}
    ]}
  ]
}
